From the OPERA property sets (Mansouri et al. 2018)
Converted amounts (≈) assume the structure as drawn.

Structure (SMILES)	logP	solubility
CC1(CCl)C2CC(Cl)(Cl)C1(C(Cl)Cl)CC2(Cl)Cl (stereo unspecified)	5.49	
CCCN(CCOc1c(Cl)cc(Cl)cc1Cl)C(=O)n1ccnc1	4.1	
ClCCCBr	2.18	
CC(=O)N[C@@H](C)C(=O)N[C@@H](C)C(N)=O	-2	
CN(C)c1ncc(-c2ccncc2)cc1C#N	2.13	
CCNC(=O)CNC(=O)c1ccccc1	0.58	
COC(=O)C(c1ccccc1)C(C)C (stereo unspecified)	3.33	
CC1(C)C=C(C(=O)NCCCN2C(=O)c3ccccc3C2=O)C(C)(C)N1	1.58	
CN(C)c1ccc(N=C=S)cc1	3.96	
Nc1ccc(C(=O)NCC(=O)O)cc1	-0.89	
CC(=O)Nc1ccc(C(=O)O)c(O)c1	1.62	
C1CCC(C2CO2)CC1 (stereo unspecified)	2.43	
O=c1cc(CO)occ1O	-0.64	
CCCCC(C)=NNC(N)=Nc1ccccc1	2.05	
COc1cc(Cl)c(Cl)c(Cl)c1Cl	4.51	
CCOC1OC2OC3(C)CC(OC4OC(C(=O)O)C(O)C(O)C4O)C4C(C)CCC(C1C)C24OO3 (stereo unspecified)	1.73	
CCCNC(=O)CCC(NS(=O)(=O)c1ccccc1)C(=O)O (stereo unspecified)	0.01	
ClC=C1C2CC(C(Cl)C2(Cl)Cl)C1(CCl)CCl (stereo unspecified)	5.2	
OCc1ccc(F)cc1	1.36	
Clc1ccc2cc(Cl)c(Cl)cc2c1	5.12	0.0721 µM (≈ 0.0167 µg/mL)
NS(=O)(=O)c1nn2c(=Nc3ccc(F)cc3)snc2s1	2.81	

Structure (SMILES)	logP	solubility
Nc1ccc(O)c([N+](=O)[O-])c1	0.96	
COCCCNc1nc(NCCCOC)nc(SC)n1		332 µM (≈ 100 µg/mL)
N#CC(C#N)=Cc1ccc(Cl)o1	2.17	
CCCCCCOC(=O)C1=C=CC(=O)NC(=O)N1	1.76	
Cc1cccc2c1ccc1ccccc12	5.08	
C=CC(N)CCC(=O)O (stereo unspecified)	-2.16	
CCCCCCCCCC(C)=O	4.09	
Nc1ccc(Cl)c(N)c1	0.85	
Cc1cccc(C(C)C)c1		317 µM (≈ 42.5 µg/mL)
CCCCCCOC(=O)c1ccccc1C(=O)OCCCCCC	6.82	
CCCCNC(=O)n1cc(F)c(=O)[nH]c1=O		3580 µM (≈ 820 µg/mL)
COC1=C(OC)C(=O)C(OC)=C(OC)C1=O	0.41	
Cc1ccc(C=[N+]([O-])c2ccccc2)cc1	2.41	
CCSCCn1cnc2c(=N)n(C)c(=O)[nH]c21	0	
CN1CC(C(=O)O)CC1=O (stereo unspecified)	-1.5	
CC(=O)OCN1C(=O)c2cccc3cccc(c23)C1=O	2.34	
O=[N+]([O-])c1ccc(Cl)c([N+](=O)[O-])c1	2.17	
CCCCC[C@H](O)/C=C/[C@@H]1[C@@H](C/C=C\CCCC(=O)O)[C@@H](O)C[C@H]1O	4.39	
CC(C)C(C#N)c1ccc([N+](=O)[O-])cc1 (stereo unspecified)	2.8	
CCCCCOC(=O)c1cc(=O)[nH]c(=O)[nH]1	1.62	
CC(=O)OC(c1ccc(Cl)c(Cl)c1)C(Cl)(Cl)Cl (stereo unspecified)	4.92	

Structure (SMILES)	logP	solubility
N#CCCCC#N	-0.72	
COC(=O)c1cc2ccccc2o1	2.53	
COC(=O)Nc1cccc(F)c1	2.21	
COc1ccc(C=[N+]([O-])C(C)(C)C)cc1	1.21	
Nc1ncnc2c1ncn2Cc1ccccc1	1.7	
CCCCCCCCCCCCN1CCCC1=O	4.2	
ClCC1(CCl)C2C(Cl)C(Cl)(Cl)C1(C(Cl)Cl)CC2(Cl)Cl (stereo unspecified)	6.26	
CC1=CC(=O)CC(C)(C)C1	1.7	
CC(=O)Nc1ncc2ncn(COCCOC(C)=O)c2n1	-1.05	
COCOCCn1cnc2c(=N)n(C)c(=O)[nH]c21	-1.52	
N#CCCCCCCC#N	0.59	
Brc1cc(Br)c(Oc2c(Br)c(Br)c(Br)c(Br)c2Br)cc1Br	8.71	
CCCC(C)C(=O)O (stereo unspecified)	1.8	
O=C(O)CCOc1cccc2ccccc12	3	
Cn1ccc(=O)c(O)c1	-0.7	
OCc1ccccc1Cl	1.77	
CCCSc1ccc2[nH]c(NC(=O)OC)nc2c1	3.07	
COC1=CC(=O)C(OC)=C(OC)C1=O	0.22	
CCCCOCCNc1ccc(Cl)cc1C(N)=O	2.99	
CN(C)CCCN1c2ccccc2Sc2ccccc21.Cl	2.94	
Cc1cn(C2OC(CO)CC2F)c(=O)[nH]c1=O (stereo unspecified)	-0.44	

Structure (SMILES)	logP	solubility
S=C1NCCN1	-0.66	
O=[N+]([O-])c1cccc(O)c1		97100 µM (≈ 13500 µg/mL)
Cc1ccc(-c2ccccc2)cc1	4.63	
NC(=S)Nc1cccc2ccccc12	1.65	
CC(C)Nc1nc(N)nc(Cl)n1	1.51	1970 µM (≈ 369 µg/mL)
CCC(=O)CC		558000 µM (≈ 48100 µg/mL)
COc1cc(Cl)c(Cl)cc1Cl	3.85	
CS(=O)CCCOc1ccc2ccccc2c1 (stereo unspecified)	2.42	
C1=C(c2ccccc2)CCNC1	1.99	
Nc1c(Cl)c(Cl)c(N)c2c1C(=O)c1ccccc1C2=O	4.56	
OCc1ccccc1F	1.31	
C=CC(=O)NCCN1CCOCC1	-0.55	
CC1(C2=CCCCC2)C(=O)NC(=O)NC1=O	1.6	
CSc1ccc(C(N)=S)cc1	2.01	
CCC(C)CO (stereo unspecified)	1.29	
C1=CCC=C1		27200 µM (≈ 1800 µg/mL)
C=C(C)C1CC=C(C)CC1 (stereo unspecified)	4.57	
CCCC(CCC)=NNC(=N)N	1.73	
CC1CCC(=O)N1 (stereo unspecified)	-0.1	
CC(C)Cc1ccc(C(C)(O)C(=O)O)cc1 (stereo unspecified)	2.75	
CC(=O)Nc1ccc2nc(S(N)(=O)=O)sc2c1	0.86	
